Where a SMILES comes first, the peptide text is derived from it. The star is where a group is joined. Ethynyl(2-Si(iPr)3) = CC(C)[Si](C#C*)(C(C)C)C(C)C
Legend:
Type in all cases: physicochemical
[1] = Solubility in water of EBX reagents
[2] = Retention time in RP-HPLC as qualitative measure of lipophilicity; conditions: analytical RP-HPLC
Experimental: For example, the retention time of peptide 11 shifted from 5.8 to 13.6 min for 11 a and 20.2 min for 11 b (See SI). The partition coefficient (LogP) of product 11 a was determined to be 1.53 compared with −1.43 for 11.[24] […]
followed by dimethylformamide wash (4 x 3 mL). Fmoc groups were then removed by shaking the resin with 20% v/v piperidine in dimethylformamide at 400 rpm, over 5 minutes. This step was carried out twice. Next, washing steps were achieved with dimethylformamide (5 x 3 mL). Finally, resin was dried with dichloromethane (5 x 3 mL).
Peptide cleavage and deprotection: Peptides were deprotected and cleaved from the resin under reducing conditions, by treatment with 2.5% v/v water and 2.5% v/v triisopropylsilane (TIPS) in neat trifluoroacetic acid (5 mL). The resulting mixture was shaken for 2 hours at 400 rpm, at room temperature. The resin was removed by filtration and peptides were precipitated in cold diethyl ether (20 mL), followed by a 2 hours incubation at -20 °C. Peptides were pelleted by centrifugation at 4000 rpm, at 4 °C, for 5 minutes. […]
A. Fractions containing the desired peptide were lyophilized. The purity was assessed by analyzing a 10-20 mM peptide solution by RP-HPLC (HPLC gradient: 100% A to 100% B in 30 minutes. At the same time, low-resolution mass spectrometric measurements were also acquired. […]

[3] = Partition coefficient (LogP), octanol/water method
Excerpt: [24] Determined using the octanol/water method according to: J. A.Arnott, S. L.Planey, Expert Opin. Drug Discovery 2012, 7, 863–875.
Calibration with 11a was achieved through the preparation of several samples of different concentrations and their analysis on RP HPLC. These analyses were repeated three times in order to obtain an average curve of calibration. The following linear regression was obtained: Y = 470.12 X + 284.02 and R = 0.9887, where Y is the absorption in mAUs -1 at 214 nm and X the concentration of 11a in mM.
Figure S3. calibration curve of 11a.
Calculation of Partition coefficient ( LogP)4
2.5 mg (4.0 µmol) 11a was dissolved in 1.7 mL octanol -H2O mixture (0.85 mL 1 -Octanol + 0.85 mL milli-Q H2O) in a 5 mL vial. In order to mix the layers, the vial was shaken on vertex for 1 min. Then the mixture was transferred to a separating funnel. The separating funnel was closed and left standing for 3 h to separate the organic and the H2O layer. Both layers were taken separately and submitted tonreverse phase HPLC. The concentration of both layers was determined by HPLC - […]
Amount of 11a in 1-octanol = 2.41 mg/mL
Amount of 11a in H2O = 0.09 mg/mL
Partition coefficient (P) = amount of 11a in 1-octanol/ amount of 11a in H2O […]
Following the same procedure for starting material 11: LogP = -1.53
4 J. R. Espinosa, C. R. Wand, C. Vega, E. Sanz, D. Frenkel, J. Chem. Phys. 2018, 149, 224501.
(1 picture or pasted object on this page, not shown here)

[4] = Cleavage of thioesters with hydroxylamine; conditions: HPLC
Excerpt: The obtained thioalkynes constitute a new type of lipophilic compounds lacking the electrophilic carbonyl group present in natural palmitoylated peptides, which is required for their hydrolysis. In presence of trifluoroacetic acid (TFA), clean hydration to give thioesters was observed (Scheme 5 a). This hydration can be performed in a one pot protocol with silylated and alkylated alkynes on both small and larger peptides to give thioesters such as 11 aa–bb, 17 aa–bb, 18 aa and 23 aa–bb in 58–82 % yield. 11 bb, 17 bb and 23 bb are then natural palmitoylated products. […] Numerous enzymatic and chemical methods have been reported for the cleavage of palmitoyl groups on cysteine.[25] […] Nevertheless, treatment with a KF solution followed by hydroxylamine also allowed to cleave this thioester with 90 % conversion. Taken together, our work therefore gives access to lipophilic peptide derivatives modifiable/cleavable under different conditions, which can be exploited depending on the desired application.
Cleavage of palmitoylthioester of Ac-Trp-Met-Asn-Ser-Thr-Gly-Phe-Thr-Lys-Val-Cys-Gly-Ala-NH2 (17bb) A 1.5 mL vial was charged with 17bb (0.5 mg, […],1.0 equiv.) 70 µL 1M NH2OH with a small magnetic bar. The NH2OH solution was freshly prepared in Milli Q water. Then the reaction mixture was stirred for 4 h at rt. […]
Yield for 17 and disulfide quantitative (retention time 5.0). […]

[5] = shake-flask 1-octanol/milli-Q H2O (0.85 mL + 0.85 mL), 2.5 mg, vortexed 1 min, left standing 3 h, both layers by RP-HPLC-UV 214 nm

Molecule C14H29-EBX-SO3M [4b] has a solubility in water [1] of 0.45 g/mL and a solubility in water ([1]; Supporting Information) of 0.45 g/mL.

With CC[C@H](C)[C@H](NC(=O)[C@H](Cc1ccccc1)NC(=O)[C@H](CSC#C[Si](C(C)C)(C(C)C)C(C)C)NC(=O)[C@@H](NC(=O)[C@H](CCC(N)=O)NC(=O)[C@H](CSC#C[Si](C(C)C)(C(C)C)C(C)C)NC(=O)[C@H](Cc1c[nH]cn1)NC(=O)[C@H](Cc1ccccc1)NC(C)=O)C(C)C)C(=O)N[C@H](C(N)=O)[C@@H](C)O [24a, Alkynylated (Phe32-Thr40) Ac-Phe-His-Cys-Gln-Val-Cys-Phe-Ile-Thr-NH2] (Ac-FHC(Ethynyl(2-Si(iPr)3))QVC(Ethynyl(2-Si(iPr)3))FIT-NH2) the “retention time (HPLC-MS of reaction mixture)” value ([2]; SI, HPLC gradient Method 1) was 19.7.

With CC(=O)N[C@@H](C)C(=O)N[C@@H](CSC#C[Si](C(C)C)(C(C)C)C(C)C)C(=O)NCC(=O)N[C@@H](Cc1ccccc1)C(N)=O [11a] (Ac-AC(Ethynyl(2-Si(iPr)3))GF-NH2) the logP [3, 5] was 1.53, the “partition coefficient (LogP)” value [3, 5] was 1.43 and the “Partition coefficient (P) = amount in 1-octanol / amount in H2O” value ([3]; shake-flask 1-octanol/milli-Q H2O, HPLC-UV 214 nm) was 26.78.

With “silylthioester of H-Ala-Cys-Ala-Phe-Lys-Asp-NH2 [18aa]” the “cleavage of the thioester by hydroxylamine” value ([4]; 1 M NH2OH in Milli Q water, rt, 4 h) was “reacts only very slowly” and the “conversion in thioester cleavage with KF and hydroxylamine” value ([4]; KF (28.7 equiv) and 1M NH2OH, 37 °C, 14 h) was 90%.

With K/Na-5-sulfonate TIPS-EBX-SO3M [4a] the “increase of solubility in water compared to TIPS-EBX (1)” value ([1]; 4a vs 1, water) was “more than fifty fold”, the solubility in water [1] was 0.00046 g/mL and the solubility in water ([1]; Supporting Information) was 0.46 g/mL.

In the case of CC(=O)N[C@@H](C)C(=O)N[C@@H](CS)C(=O)NCC(=O)N[C@@H](Cc1ccccc1)C(N)=O [compound 11, Ac-Ala-Cys-Gly-Phe-NH2] (Ac-ACGF-NH2), the “retention time in RP-HPLC” value ([2]; HPLC gradient Method 3 per SI) is reported as 5.8 min.

Reference: paper PMC8456932, “Amphiphilic Iodine(III) Reagents for the Lipophilization of Peptides in Water” (Angewandte Chemie (International Ed. in English), 2021)
